From PubChem BioAssay AID2060508 (Molecular Pharmacology Branch, DTP, NCI, 2025)

System: 454973-116-R2-J3-PDC spheroids, viability, % test/control
Assay: Anticancer human tumor 454973-116-R2-J3-PDC patient-derived pancreatic carcinoma cell line growth inhibition [GQUAD]
Settings: second compound 1 µM; first compound 0.316 µM; hits give low values; spheroids with HUVEC and MSC
From the text: DNA G-quadruplex Stabilizer Agents in Combinations in Complex Spheroids
A high-throughput screen of multi-cell type tumor spheroids was designed to identify active combinations of DNA G-quadruplex stabilizer agents and targeted small molecules. Complex spheroids include a stromal component modeled by human endothelial cells (HUVEC) and fibroblasts modeled by human mesenchymal stem cells (MSCs). The concentration ranges selected for each drug and investigational agent were based upon clinically achievable concentrations if the clinical Cmax of the agent was known.
Compounds. The drugs and investigational agents: pidnarulex (CX-5461; NSC782164), APTO-253 (NSC789042), BRACO-19 (NSC847499), peposertib (NSC802822), ceralasertib (NSC780249), elimusertib (NSC800525), camonsertib (NSC841442), AZD-1390 (NSC803789), olaparib (NSC753686), talazoparib (NSC767125), ART-558 (NSC835418), sotorasib (NSC818433), MRTX-1133 (NSC836407), SN-38 (NSC673596), topotecan (NSC609699), etoposide (NSC141540), doxorubicin (NSC123127), gemcitabine (NSC613327), 5-fluorouracil (NSC19893), paclitaxel (NSC125973), vemurafenib (NSC761431), panobinostat (NSC761190), R-306465 (JNJ-16241199; NSC773264), adavosertib (NSC754352), TP-3654 (NSC805149), carboplatin (NSC241240), KSQ-4279 (NSC840948), and staurosporine (NSC755774) were obtained from the National Cancer Institute (NCI) Developmental Therapeutics Program Chemical Repository (34). The FDA-approved anticancer drug set is available from the NCI Developmental Therapeutics Program. […] The stock solutions were prepared in dimethyl sulfoxide (DMSO, Sigma-Aldrich, St. Louis, MO, cat. D2650) at 800-fold the tested concentration and stored at -70 degrees C prior to their use. All drugs and investigational agents were tested over a range starting from a high concentration at or near the clinical Cmax and decreasing in half-log increments. If the clinical Cmax for an agent had not been determined, the highest concentration tested was 10 microM.
2.3 Cell Culture. All cells were maintained in an incubator at 37 degrees C and 5% CO2 with 95% humidity. The PDC lines were cultured according to standard operating procedures established by the NCI PDMR. All PDCs were thawed and cultured in Matrigel-coated flasks prepared with a working solution of 1X Ham's F-12 nutrient mix, without supplementation (Invitrogen, cat. 11765054), 100 U/mL penicillin-streptomycin (Invitrogen, cat. 15140122), and 2.5% Matrigel (Corning Inc., cat. 354248) for the first three passages. The 857933-349-R-J2-PDC line was cultured in 6C/Colon 1B media, which includes advanced DMEM/F-12 (Thermo Fisher Scientific, cat. 12634028), 10 mM HEPES (Thermo Fisher Scientific, cat. 15630080), 1X GlutaMAX supplement (Thermo Fisher Scientific, cat. 35050061), 0.1 mg/mL primocin (InvivoGen, cat. ant-pm-2), 10% defined fetal bovine serum, heat inactivated (HyClone Laboratories Inc., cat. SH30070.03HI), 50% L-WRN conditioned media (ATCC, cat. CRL-3276), 1.25 mM N-Acetyl-L-cysteine (Sigma-Aldrich, cat. A9165), 10 mM nicotinamide (Sigma-Aldrich, cat. N0636), 1X B-27 supplement (Thermo Fisher Scientific, cat. 17504044), 1X N-2 supplement (Thermo Fisher Scientific, cat. 17502048), 10 microM Y-27632 dihydrochloride (Tocris Bioscience, cat. 1254), and 50 ng/mL human EGF recombinant protein (Thermo Fisher Scientific, cat. PHG0311). The 485176-168-R4-J1-PDC line was cultured in Panc media, which includes all 6C/Colon 1B media components plus 100 ng/mL human FGF-10 (Thermo Fisher Scientific, cat. 100-26), 500 nM SB-431542 (Selleckchem, cat. S1067), and gastrin (Tocris, cat. 3006).
[…]
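Note: spheroids exposed to compounds for seven days.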

Row | Structure (SMILES) | viability, T/C [%]
1 | CC1COCCN1c1cc(C2(O)CC3CCC(C2)O3)c2cnn(-c3ccn[nH]3)c2n1 (stereo unspecified) + Cc1cnc(CNC(=O)c2c(=O)c3ccc(N4CCCN(C)CC4)nc3n3c2sc2ccccc23)cn1 | 27.5
2 | COc1ccc([C@@H](O)c2cc(-c3ncnc4cc(N5CCOCC5)ccc34)c(F)cc2Cl)nn1 + Cc1cnc(CNC(=O)c2c(=O)c3ccc(N4CCCN(C)CC4)nc3n3c2sc2ccccc23)cn1 | 55.1
3 | O=C(c1cc(Cc2n[nH]c(=O)c3ccccc23)ccc1F)N1CCN(C(=O)C2CC2)CC1 + Cc1cnc(CNC(=O)c2c(=O)c3ccc(N4CCCN(C)CC4)nc3n3c2sc2ccccc23)cn1 | 64

Same assay, conditions: second compound 1 µM; first compound 1 µM; hits give low values; spheroids with HUVEC and MSC

Row | Structure (SMILES) | viability, T/C [%]
4 | CC1COCCN1c1cc(C2(O)CC3CCC(C2)O3)c2cnn(-c3ccn[nH]3)c2n1 (stereo unspecified) + Cc1cnc(CNC(=O)c2c(=O)c3ccc(N4CCCN(C)CC4)nc3n3c2sc2ccccc23)cn1 | 23.8
5 | COc1ccc([C@@H](O)c2cc(-c3ncnc4cc(N5CCOCC5)ccc34)c(F)cc2Cl)nn1 + Cc1cnc(CNC(=O)c2c(=O)c3ccc(N4CCCN(C)CC4)nc3n3c2sc2ccccc23)cn1 | 43.7
6 | O=C(c1cc(Cc2n[nH]c(=O)c3ccccc23)ccc1F)N1CCN(C(=O)C2CC2)CC1 + Cc1cnc(CNC(=O)c2c(=O)c3ccc(N4CCCN(C)CC4)nc3n3c2sc2ccccc23)cn1 | 63.7

Same assay, conditions: second compound 1 µM; first compound 3.16 µM; hits give low values; spheroids with HUVEC and MSC

Row | Structure (SMILES) | viability, T/C [%]
7 | CC1COCCN1c1cc(C2(O)CC3CCC(C2)O3)c2cnn(-c3ccn[nH]3)c2n1 (stereo unspecified) + Cc1cnc(CNC(=O)c2c(=O)c3ccc(N4CCCN(C)CC4)nc3n3c2sc2ccccc23)cn1 | 20
8 | COc1ccc([C@@H](O)c2cc(-c3ncnc4cc(N5CCOCC5)ccc34)c(F)cc2Cl)nn1 + Cc1cnc(CNC(=O)c2c(=O)c3ccc(N4CCCN(C)CC4)nc3n3c2sc2ccccc23)cn1 | 39.8
9 | O=C(c1cc(Cc2n[nH]c(=O)c3ccccc23)ccc1F)N1CCN(C(=O)C2CC2)CC1 + Cc1cnc(CNC(=O)c2c(=O)c3ccc(N4CCCN(C)CC4)nc3n3c2sc2ccccc23)cn1 | 58.2

Same assay, conditions: second compound 1 µM; first compound 10 µM; hits give low values; spheroids with HUVEC and MSC

Row | Structure (SMILES) | viability, T/C [%]
10 | CC1COCCN1c1cc(C2(O)CC3CCC(C2)O3)c2cnn(-c3ccn[nH]3)c2n1 (stereo unspecified) + Cc1cnc(CNC(=O)c2c(=O)c3ccc(N4CCCN(C)CC4)nc3n3c2sc2ccccc23)cn1 | 11.7
11 | COc1ccc([C@@H](O)c2cc(-c3ncnc4cc(N5CCOCC5)ccc34)c(F)cc2Cl)nn1 + Cc1cnc(CNC(=O)c2c(=O)c3ccc(N4CCCN(C)CC4)nc3n3c2sc2ccccc23)cn1 | 28.4
12 | O=C(c1cc(Cc2n[nH]c(=O)c3ccccc23)ccc1F)N1CCN(C(=O)C2CC2)CC1 + Cc1cnc(CNC(=O)c2c(=O)c3ccc(N4CCCN(C)CC4)nc3n3c2sc2ccccc23)cn1 | 55.4

Same assay, conditions: second compound 3.16 µM; first compound 0.0316 µM; hits give low values; spheroids with HUVEC and MSC

Row | Structure (SMILES) | viability, T/C [%]
13 | CC1COCCN1c1cc(C2(O)CC3CCC(C2)O3)c2cnn(-c3ccn[nH]3)c2n1 (stereo unspecified) + Cc1cnc(CNC(=O)c2c(=O)c3ccc(N4CCCN(C)CC4)nc3n3c2sc2ccccc23)cn1 | 37.9
14 | COc1ccc([C@@H](O)c2cc(-c3ncnc4cc(N5CCOCC5)ccc34)c(F)cc2Cl)nn1 + Cc1cnc(CNC(=O)c2c(=O)c3ccc(N4CCCN(C)CC4)nc3n3c2sc2ccccc23)cn1 | 69
15 | O=C(c1cc(Cc2n[nH]c(=O)c3ccccc23)ccc1F)N1CCN(C(=O)C2CC2)CC1 + Cc1cnc(CNC(=O)c2c(=O)c3ccc(N4CCCN(C)CC4)nc3n3c2sc2ccccc23)cn1 | 74.2

Same assay, conditions: second compound 3.16 µM; first compound 0.1 µM; hits give low values; spheroids with HUVEC and MSC

Row | Structure (SMILES) | viability, T/C [%]
16 | CC1COCCN1c1cc(C2(O)CC3CCC(C2)O3)c2cnn(-c3ccn[nH]3)c2n1 (stereo unspecified) + Cc1cnc(CNC(=O)c2c(=O)c3ccc(N4CCCN(C)CC4)nc3n3c2sc2ccccc23)cn1 | 32.3
